Results taken from US12146177B2, “Methods of making and using E,Z,E-geranylgeranyl diphosphate” (WiSys Technology Foundation, Inc., priority 2020, dated 2024).

System: Escherichia coli C41
Format: cell-based
Details: compound itself not applied to cells

CC(C)=CCC/C(C)=C/CC/C(C)=C\CC/C(C)=C/COP(=O)(O)OP(=O)(O)O [E,Z,E-GGPP, E,Z,E-Geranylgeranyl pyrophosphate]
bactericidal effect on E. coli: bactericidal agent
